Measured values taken from patent US20050101595A1, “N-containing cycloalkyl-substituted amino-thiazole derivatives and pharmaceutical compositions for inhibiting cell proliferation and methods for their use” (PFIZER INC., priority 2003, published 2005).
Where a name gives a salt, the structure may show the parent alone. Read-outs that look alike come from different tables or passages of the source.

Tests used:
[1] = tested on: HCT-116 cell line; assay: Inhibition of cell growth, tetrazolium salt (MTT) assay; assay type: cell-based; conditions: for HCT-116 % Inhibition at 0.25 μM: 0.25 μM compound; for IC50: Homo sapiens, HCT-116, 120 h, MTT, three to five days, read-out: HCT-116 IC50
Summary of the method: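 Growth inhibition by MTT reduction at 540 nm (0.2 mg/mL, 4 h at 37° C, formazan dissolved in DMSO), normalized to cells given only 0.5% v/v DMSO. HCT-116 cultures in McCoy's 5A were dosed 4 h post-plating and kept three to five days at 37° C, 5% CO2.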

[2] = target: human CDK4 and genetically truncated (1-264) cyclin D3 (Homo sapiens, UniProt P11802); assay: Inhibition of CDK4/Cyclin D Retinoblastoma Kinase Activity; assay type: biochemical; conditions: for Ki: apparent Ki, CDK4/truncated cyclin D3, Rb fragment substrate, 25 μM ATP
Summary of the method: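 Apparent Ki values derive from fitting activity at varied inhibitor concentrations to a competitive (or competitive tight-binding) model. Kinase reactions used 5 nM CDK4/cyclin D3(1-264), Rb fragment substrate and 25 μM ATP. Incubation ran 20 min at 30 °C, extended to 60 min under linear conditions for tight binders.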

[3] = target: CDK2/Cyclin A (Homo sapiens, UniProt P24941); assay: Inhibition of CDK2/Cyclin A Retinoblastoma Kinase Activity; assay type: biochemical; conditions: for Ki: apparent Ki, CDK2/proteolyzed cyclin A, Rb fragment substrate, 25 μM ATP
Summary of the method: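 Percent inhibition is calculated against DMSO-only wells after subtracting no-enzyme background. The enzyme is human CDK2 complexed with proteolyzed cyclin A, used at 10 nM or 19 nM on an Rb fragment with 25 μM [32/33P]ATP, at pH 7.4 and 30° C.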

[4] = 0.1 μM compound, HCT-116, Table 3
[5] = 0.1 μM compound, HCT-116, Table 4

Sequence of human CDK4 and genetically truncated (1-264) cyclin D3 (P11802 whole entry, the tested form may be a part): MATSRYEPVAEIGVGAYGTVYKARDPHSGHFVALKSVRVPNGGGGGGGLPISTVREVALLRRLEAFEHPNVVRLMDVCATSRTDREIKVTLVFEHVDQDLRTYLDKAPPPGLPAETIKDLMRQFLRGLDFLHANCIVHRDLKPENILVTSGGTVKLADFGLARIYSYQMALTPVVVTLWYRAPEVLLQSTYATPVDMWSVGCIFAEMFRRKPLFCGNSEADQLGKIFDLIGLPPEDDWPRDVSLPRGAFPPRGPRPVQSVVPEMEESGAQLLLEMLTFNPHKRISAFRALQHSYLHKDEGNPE
Sequence of human CDK4 and genetically truncated (1-264) cyclin D3 (P30281 1-264 partner): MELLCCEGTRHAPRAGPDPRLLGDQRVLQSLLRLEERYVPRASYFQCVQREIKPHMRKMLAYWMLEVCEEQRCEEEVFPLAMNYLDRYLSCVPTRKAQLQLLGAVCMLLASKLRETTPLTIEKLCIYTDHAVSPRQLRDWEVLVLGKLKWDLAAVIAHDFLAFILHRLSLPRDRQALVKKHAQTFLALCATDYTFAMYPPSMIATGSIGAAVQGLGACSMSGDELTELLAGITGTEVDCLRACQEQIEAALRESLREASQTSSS

SMILES	CDK4 % Inhibition at 0.03 μM ([2]; at 0.03 μM)	CDK2 % Inhibition at 0.03 μM ([3]; at 0.03 μM)	IC50 ([1]; first HCT-116 column (c4))	IC50 ([1]; second HCT-116 column (c5))	Ki [2]	Ki [3]	HCT-116 % Inhibition at 0.1 μM ([1]; HCT-116 cells, at 0.1 μM)	HCT-116 5 Inhibition at 0.25 μM ([1]; HCT-116 cells)	further results
CC(C)c1cc(C(C)C)c(S(=O)(=O)N2CCC(Nc3nc(N)c(C(=O)c4c(F)cccc4F)s3)CC2)c(C(C)C)c1 [Example P9]	–	–	–	–	–	–	–	–	HCT-116 % Inhibition at 0.1 μM [1, 4]: 13%; HCT-116 % Inhibition at 0.25 μM ([1]; HCT-116, Table 3): 35%; CDK4 % Inhibition at 0.03 μM ([2]; 0.03 μM compound, Table 3): 46%; CDK2 % Inhibition at 0.03 μM ([3]; 0.03 μM compound, Table 3): −17%
Nc1nc(NC2CCN(C(=O)c3cccc(O)c3)CC2)sc1C(=O)c1c(F)cccc1F [Example R138]	70%	67%	–	–	–	–	0%	40	–
CCC(C)CC(=O)N1CCC(Nc2nc(N)c(C(=O)c3c(F)cccc3F)s2)CC1 (centres unmarked) [Example R171]	39%	23%	–	–	–	–	0%	46	–
COc1c(C(=O)N2CCC(Nc3nc(N)c(C(=O)c4c(F)cccc4F)s3)CC2)csc1Br [Example R50]	44%	51%	–	–	–	–	0%	48	–
Nc1nc(NC2CCN(C(=O)c3ccc(I)cc3)CC2)sc1C(=O)c1c(F)cccc1F [Example Q53]	–	–	–	–	–	–	–	–	HCT-116 % Inhibition at 0.1 μM [1, 5]: 0%; HCT-116 % Inhibition at 0.25 μM ([1]; HCT-116, Table 4): 22%; CDK4 % Inhibition at 0.03 μM ([2]; 0.03 μM compound, Table 4): 83%; CDK2 % Inhibition at 0.03 μM ([3]; 0.03 μM compound, Table 4): 60%
Nc1nc(NC2CCN(C(=S)Oc3ccccc3)CC2)sc1C(=O)c1c(F)cccc1F [Example Q83]	–	–	–	–	–	–	–	–	HCT-116 % Inhibition at 0.1 μM [1, 5]: 2%; HCT-116 % Inhibition at 0.25 μM ([1]; HCT-116, Table 4): 25%; CDK4 % Inhibition at 0.03 μM ([2]; 0.03 μM compound, Table 4): 55%; CDK2 % Inhibition at 0.03 μM ([3]; 0.03 μM compound, Table 4): 72%
Nc1nc(NC2CCN(C(=O)C3Cc4ccccc43)CC2)sc1C(=O)c1c(F)cccc1F (centres unmarked) [Example R94]	−5%	10%	–	–	–	–	0%	42	–
Nc1nc(NC2CCN(C(=O)c3ccno3)CC2)sc1C(=O)c1c(F)cccc1F [Example R46]	83%	71%	–	–	–	–	0.47%	37	–
CC1CCCC(NCCS(=O)(=O)N2CCC(Nc3nc(N)c(C(=O)c4c(F)cccc4F)s3)CC2)C1 (mixture of isomers) [Example K43, (4-Amino-2-{1-[2-(3(cis/trans)-methyl-cyclohexylamino)-ethanesulfonyl]-piperidin-4-ylamino}-thiazol-5-yl)-(2,6-difluoro-phenyl)-methanone]	–	–	51 nM	300 nM	2.4 nM	0.57 nM	–	–	–
Nc1nc(NC2CCN(C(=O)c3cccnc3)CC2)sc1C(=O)c1c(F)cccc1F [Example Q80]	–	–	–	–	–	–	–	–	HCT-116 % Inhibition at 0.1 μM [1, 5]: 10%; HCT-116 % Inhibition at 0.25 μM ([1]; HCT-116, Table 4): 27%; CDK4 % Inhibition at 0.03 μM ([2]; 0.03 μM compound, Table 4): 50%; CDK2 % Inhibition at 0.03 μM ([3]; 0.03 μM compound, Table 4): 20%
Nc1nc(NC2CCN(C(=O)c3ccc4c(c3)C(=O)c3ccccc3C4=O)CC2)sc1C(=O)c1c(F)cccc1F [Example R34]	60%	35%	–	–	–	–	0%	55	–
Cc1cc(C)c2c(c1C(=O)N1CCC(Nc3nc(N)c(C(=O)c4c(F)cccc4F)s3)CC1)CC(C)(C)C2=O [Example R29]	23%	2%	–	–	–	–	0%	36	–
Nc1nc(NC2CCN(C(=O)[C@H](Cc3ccccc3)NS(=O)(=O)c3cccc4ccccc34)CC2)sc1C(=O)c1c(F)cccc1F [Example R73]	19%	6%	–	–	–	–	4%	38	–
Cc1nn(C)c(Cl)c1S(=O)(=O)N1CCC(Nc2nc(N)c(C(=O)c3c(F)cccc3F)s2)CC1 [Example P50]	–	–	–	–	–	–	–	–	HCT-116 % Inhibition at 0.1 μM [1, 4]: 14%; HCT-116 % Inhibition at 0.25 μM ([1]; HCT-116, Table 3): 25%; CDK4 % Inhibition at 0.03 μM ([2]; 0.03 μM compound, Table 3): 35%; CDK2 % Inhibition at 0.03 μM ([3]; 0.03 μM compound, Table 3): 30%
Nc1nc(NC2CCN(C(=O)/C=C/c3ccncc3)CC2)sc1C(=O)c1c(F)cccc1F [Example D6, 1-{[4-Amino-5-(2,6-difluoro-benzoyl)-thiazol-2-ylamino]-piperidin-1-yl)3-pyridin-4-yl-prop-2(E)-enone]	–	–	1900 nM	3900 nM	67 nM	160 nM	–	–	–
CCOC(=O)C(NC(=O)N1CCC(Nc2nc(N)c(C(=O)c3c(F)cccc3F)s2)CC1)C(C)C (centres unmarked) [Example O74]	–	–	–	–	–	–	–	–	HCT-116 % Inhibition at 0.25 μM ([1]; HCT-116, Table 2): 34%; CDK4 % Inhibition at 0.03 μM ([2]; 0.03 μM compound, Table 2): 102%; CDK2 % Inhibition At 0.03 μM ([3]; 0.03 μM compound, Table 2): 35%
CC12CCC(C(=O)N3CCC(Nc4nc(N)c(C(=O)c5c(F)cccc5F)s4)CC3)(OC1=O)C2(C)C (centres unmarked) [Example R67]	22%	11%	–	–	–	–	4%	40	–
Nc1nc(NC2CCN(C(=O)c3ccc(F)cc3)CC2)sc1C(=O)c1c(F)cccc1F [Example Q26]	–	–	–	–	–	–	–	–	HCT-116 % Inhibition at 0.1 μM [1, 5]: 3%; HCT-116 % Inhibition at 0.25 μM ([1]; HCT-116, Table 4): 42%; CDK4 % Inhibition at 0.03 μM ([2]; 0.03 μM compound, Table 4): 60%; CDK2 % Inhibition at 0.03 μM ([3]; 0.03 μM compound, Table 4): 18%
Cc1oc(-c2ccccc2)cc1C(=O)N1CCC(Nc2nc(N)c(C(=O)c3c(F)cccc3F)s2)CC1 [Example R77]	15%	19%	–	–	–	–	0%	44	–
Nc1nc(NC2CCN(C(=O)c3ccc(F)c(Cl)c3)CC2)sc1C(=O)c1c(F)cccc1F [Example D8, 1-(4-Amino-2-{1-[1-(3-chloro-4-fluoro-phenyl)-methanoyl]-piperidin-4-ylamino}-thiazol-5-yl)-1-(2,6-difluoro-phenyl)-methanone]	–	–	97 nM	250 nM	9.6 nM	99 nM	–	–	–
Nc1nc(NC2CCN(C(=O)c3ccc(C(F)(F)F)cc3F)CC2)sc1C(=O)c1c(F)cccc1F [Example R35]	21%	19%	–	–	–	–	0%	49	–

Second part, led by results:

CDK4 % Inhibition at 0.03 μM ([2]; at 0.03 μM)	CDK2 % Inhibition at 0.03 μM ([3]; at 0.03 μM)	IC50 ([1]; first HCT-116 column (c4))	IC50 ([1]; second HCT-116 column (c5))	Ki [2]	Ki [3]	SMILES	HCT-116 % Inhibition at 0.1 μM ([1]; HCT-116 cells, at 0.1 μM)	HCT-116 5 Inhibition at 0.25 μM ([1]; HCT-116 cells)	further results
–	–	1700 nM	3800 nM	930 nM	12000 nM	CN1CCC(Nc2nc(N)c(C(=O)c3c(F)cccc3F)s2)CC1 [Example A4, 1-[4-Amino-2-(1-methyl-piperidin-4-ylamino)-thiazol-5-yl]-1-(2,6-difluoro-phenyl)-methanone]	–	–	–
–	–	55 nM	> 500 nM	0.3 nM	1.6 nM	CCN(CC)CCOc1ccc(S(=O)(=O)N2CCC(Nc3nc(N)c(C(=O)c4c(F)cccc4F)s3)CC2)cn1 [Example H18, (4-Amino-2-{1-[6-(2-diethylamino-ethoxy)-pyridine-3-sulfonyl]-piperidin-4-ylamino}-thiazol-5-yl)-(2,6-difluoro-phenyl)-methanone Trifluoroacetic Acid Salt]	–	–	–
–	–	360 nM	900 nM	1.4 nM	0.55 nM	C[C@@H](O)CN(C)c1ccc(S(=O)(=O)N2CCC(Nc3nc(N)c(C(=O)c4c(F)cccc4F)s3)CC2)cn1 [Example G17, 1-[4-Amino-2-(1-{6-[((R)-2-hydroxy-propyl)-methyl-amino]-pyridine-3-sulfonyl}-piperidine-4-ylamino)-thiazol-5-yl]-1-(2,6-difluoro-phenyl)-methanone Trifluoroacetic Acid Salt]	–	–	–
–	–	580 nM	1300 nM	0.67 nM	< 1 nM	Nc1nc(NC2CCN(S(=O)(=O)c3ccc(OCc4cccnc4)nc3)CC2)sc1C(=O)c1c(F)cccc1F [Example H8, 1-(4-Amino-2-{1-[6-(pyridin-3-ylmethoxy)-pyridine-3-sulfonyl]-piperidin-4-ylamino}-thiazol-5-yl)-1-(2,6-difluoro-phenyl)-methanone Trifluoroacetic Acid Salt]	–	–	–
–	–	79 nM	> 500 nM	0.28 nM	0.73 nM	C[C@@H]1CN(c2ccc(S(=O)(=O)N3CCC(Nc4nc(N)c(C(=O)c5c(F)cccc5F)s4)CC3)cn2)C[C@H](C)N1 [Example G15, 1-(4-Amino-2-{1-[6-(3,5-dimethyl-piperizin-1-yl)-pyridin-3-sulfonyl]-piperidin-4-ylamino}-thiazol-5-yl)-1-(2,6-difluoro-phenyl)-methanone Trifluoroacetic Acid Salt]	–	–	–
–	–	48 nM	200 nM	1.7 nM	3.2 nM	CN(C)c1ccc(S(=O)(=O)N2CCC(Nc3nc(N)c(C(=O)c4c(F)cccc4F)s3)CC2)cn1 [Example F19, 1-{4-Amino-2-[1-(6-dimethylamino-pyridine-3-sulfonyl)-piperidin-4-ylamino]-thiazol-5-yl}-1-(2,6-difluoro-phenyl)-methanone]	–	–	–
